From the kinase profiling compilation of Christmann-Franck et al. (2016)
Values belong to the compound of their own block, whether it stands above or below them.

How the values were obtained:
Test in all cases: radiometric filter-binding kinase assay, Kinase HotSpot
Details in all cases: compound 0.5 µM; ATP 10 µM
ADRBK2 (human) = ADRBK2 (human) (UniProt P35626)
AKT3 (human) = AKT3 (human) (UniProt Q9Y243)
CAMK2B (human) = CAMK2B (human) (UniProt Q13554)
CAMK2G (human) = CAMK2G (human) (UniProt Q13555)
CDK7 CCNH MNAT1 (human) = CDK7 CCNH MNAT1 (human) (UniProt P50613+P51948+P51946)
CLK4 (human) = CLK4 (human) (UniProt Q9HAZ1)
CSNK1G1 (human) = CSNK1G1 (human) (UniProt Q9HCP0)
DAPK3 (human) = DAPK3 (human) (UniProt O43293)
DDR2 (human) = DDR2 (human) (UniProt Q16832)
DYRK1A (human) = DYRK1A (human) (UniProt Q13627)
EPHA1 (human) = EPHA1 (human) (UniProt P21709)
GRK6 (human) = GRK6 (human) (UniProt P43250)
IKBKB (human) = IKBKB (human) (UniProt O14920)
INSRR (human) = INSRR (human) (UniProt P14616)
LIMK1 (human) = LIMK1 (human) (UniProt P53667)
LRRK2 (human) = LRRK2 (human) (UniProt Q5S007)
MAP3K14 (human) = MAP3K14 (human) (UniProt Q99558)
MAP3K3 (human) = MAP3K3 (human) (UniProt Q99759)
MAP3K8 (human) = MAP3K8 (human) (UniProt P41279)
MAP4K5 (human) = MAP4K5 (human) (UniProt Q9Y4K4)
MAPK14 (human) = MAPK14 (human) (UniProt Q16539)
MARK2 (human) = MARK2 (human) (UniProt Q7KZI7)
MKNK2 (human) = MKNK2 (human) (UniProt Q9HBH9)
MLTK (human) = MLTK (human) (UniProt Q9NYL2)
MYLK2 (human) = MYLK2 (human) (UniProt Q9H1R3)
NTRK2 (human) = NTRK2 (human) (UniProt Q16620)
NUAK1 (human) = NUAK1 (human) (UniProt O60285)
NUAK2 (human) = NUAK2 (human) (UniProt Q9H093)
PAK3 (human) = PAK3 (human) (UniProt O75914)
PRKACA (human) = PRKACA (human) (UniProt P17612)
PRKCH (human) = PRKCH (human) (UniProt P24723)
PRKD1 (human) = PRKD1 (human) (UniProt Q15139)
PRKX (human) = PRKX (human) (UniProt P51817)
RPS6KA4 KD2 (human) = RPS6KA4 KD2 (human) (UniProt O75676)
SGK2 (human) = SGK2 (human) (UniProt Q9HBY8)
SRPK3 (human) = SRPK3 (human) (UniProt Q9UPE1)
STK16 (human) = STK16 (human) (UniProt O75716)
STK25 (human) = STK25 (human) (UniProt O00506)
STK33 (human) = STK33 (human) (UniProt Q9BYT3)
TAOK1 (human) = TAOK1 (human) (UniProt Q7L7X3)
TAOK2 (human) = TAOK2 (human) (UniProt Q9UL54)
TAOK3 (human) = TAOK3 (human) (UniProt Q9H2K8)

Chain of NUAK1 (human) (O60285 whole entry, looked up): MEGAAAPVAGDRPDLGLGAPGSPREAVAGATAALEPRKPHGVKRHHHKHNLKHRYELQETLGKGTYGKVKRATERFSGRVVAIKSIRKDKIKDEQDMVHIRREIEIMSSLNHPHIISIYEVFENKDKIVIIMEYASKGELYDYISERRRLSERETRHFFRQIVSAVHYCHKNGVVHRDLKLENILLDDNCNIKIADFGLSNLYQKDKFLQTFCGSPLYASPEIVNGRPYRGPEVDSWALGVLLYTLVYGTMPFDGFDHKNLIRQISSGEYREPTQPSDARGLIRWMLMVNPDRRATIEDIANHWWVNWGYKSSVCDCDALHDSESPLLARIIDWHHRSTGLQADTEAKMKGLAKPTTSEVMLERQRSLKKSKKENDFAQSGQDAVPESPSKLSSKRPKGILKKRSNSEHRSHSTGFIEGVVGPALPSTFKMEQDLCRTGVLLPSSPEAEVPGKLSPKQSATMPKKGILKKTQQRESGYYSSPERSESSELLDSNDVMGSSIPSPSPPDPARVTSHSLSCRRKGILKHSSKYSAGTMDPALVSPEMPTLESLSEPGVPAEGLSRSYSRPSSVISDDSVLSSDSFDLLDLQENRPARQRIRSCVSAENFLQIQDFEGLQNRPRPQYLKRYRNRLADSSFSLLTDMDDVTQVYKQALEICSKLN
Chain of MAPK14 (human) (Q16539 whole entry, looked up): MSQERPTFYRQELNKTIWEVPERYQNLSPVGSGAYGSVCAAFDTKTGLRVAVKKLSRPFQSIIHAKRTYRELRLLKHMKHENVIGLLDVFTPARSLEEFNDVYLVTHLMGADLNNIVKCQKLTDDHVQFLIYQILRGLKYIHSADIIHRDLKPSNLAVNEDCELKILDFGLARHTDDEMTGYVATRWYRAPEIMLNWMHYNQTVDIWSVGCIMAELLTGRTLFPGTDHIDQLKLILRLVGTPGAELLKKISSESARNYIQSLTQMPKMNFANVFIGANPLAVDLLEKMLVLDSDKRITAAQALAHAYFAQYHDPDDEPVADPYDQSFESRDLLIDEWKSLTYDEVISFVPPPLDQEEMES
Chain of TAOK1 (human) (Q7L7X3 whole entry, looked up): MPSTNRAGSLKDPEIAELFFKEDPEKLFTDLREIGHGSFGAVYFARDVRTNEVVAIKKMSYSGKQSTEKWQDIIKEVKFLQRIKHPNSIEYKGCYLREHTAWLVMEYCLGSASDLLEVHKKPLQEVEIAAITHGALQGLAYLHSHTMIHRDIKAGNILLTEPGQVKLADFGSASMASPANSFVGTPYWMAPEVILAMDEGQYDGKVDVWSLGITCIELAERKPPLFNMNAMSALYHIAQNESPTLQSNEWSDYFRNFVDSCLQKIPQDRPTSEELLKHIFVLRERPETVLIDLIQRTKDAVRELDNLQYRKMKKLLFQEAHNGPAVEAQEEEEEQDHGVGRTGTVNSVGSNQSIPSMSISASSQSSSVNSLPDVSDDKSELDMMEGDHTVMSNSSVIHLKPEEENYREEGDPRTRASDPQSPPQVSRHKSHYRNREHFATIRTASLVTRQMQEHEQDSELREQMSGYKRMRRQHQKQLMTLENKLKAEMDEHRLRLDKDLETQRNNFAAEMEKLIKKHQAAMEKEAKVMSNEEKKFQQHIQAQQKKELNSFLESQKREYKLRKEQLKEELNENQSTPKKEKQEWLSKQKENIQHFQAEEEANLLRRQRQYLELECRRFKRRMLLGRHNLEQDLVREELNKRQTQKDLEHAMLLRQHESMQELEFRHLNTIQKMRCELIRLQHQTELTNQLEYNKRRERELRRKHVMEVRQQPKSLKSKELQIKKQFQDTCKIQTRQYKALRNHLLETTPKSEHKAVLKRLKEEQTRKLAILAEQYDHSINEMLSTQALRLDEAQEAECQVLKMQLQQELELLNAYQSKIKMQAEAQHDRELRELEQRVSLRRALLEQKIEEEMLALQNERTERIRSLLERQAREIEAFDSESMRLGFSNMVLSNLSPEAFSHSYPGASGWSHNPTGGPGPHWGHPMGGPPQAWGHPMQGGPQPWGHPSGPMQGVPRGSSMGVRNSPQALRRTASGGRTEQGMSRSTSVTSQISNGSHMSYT
Chain of NUAK2 (human) (Q9H093 whole entry, looked up): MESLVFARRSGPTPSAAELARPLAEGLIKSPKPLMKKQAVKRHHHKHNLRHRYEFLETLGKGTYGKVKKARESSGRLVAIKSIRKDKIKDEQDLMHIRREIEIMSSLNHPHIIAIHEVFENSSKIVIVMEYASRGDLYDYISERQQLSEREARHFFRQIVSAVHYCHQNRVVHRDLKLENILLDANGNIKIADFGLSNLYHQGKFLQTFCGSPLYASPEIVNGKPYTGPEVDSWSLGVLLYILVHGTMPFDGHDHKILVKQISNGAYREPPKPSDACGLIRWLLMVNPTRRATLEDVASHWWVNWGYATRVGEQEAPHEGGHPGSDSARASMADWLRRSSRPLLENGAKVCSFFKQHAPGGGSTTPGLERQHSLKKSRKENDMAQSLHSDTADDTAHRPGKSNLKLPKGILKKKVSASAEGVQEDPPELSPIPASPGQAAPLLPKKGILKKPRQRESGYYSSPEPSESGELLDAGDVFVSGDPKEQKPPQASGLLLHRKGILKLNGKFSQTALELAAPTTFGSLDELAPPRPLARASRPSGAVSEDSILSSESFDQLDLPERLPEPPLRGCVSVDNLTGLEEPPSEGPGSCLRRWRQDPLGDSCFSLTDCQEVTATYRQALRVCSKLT
Chain of MAP3K14 (human) (Q99558 whole entry, looked up): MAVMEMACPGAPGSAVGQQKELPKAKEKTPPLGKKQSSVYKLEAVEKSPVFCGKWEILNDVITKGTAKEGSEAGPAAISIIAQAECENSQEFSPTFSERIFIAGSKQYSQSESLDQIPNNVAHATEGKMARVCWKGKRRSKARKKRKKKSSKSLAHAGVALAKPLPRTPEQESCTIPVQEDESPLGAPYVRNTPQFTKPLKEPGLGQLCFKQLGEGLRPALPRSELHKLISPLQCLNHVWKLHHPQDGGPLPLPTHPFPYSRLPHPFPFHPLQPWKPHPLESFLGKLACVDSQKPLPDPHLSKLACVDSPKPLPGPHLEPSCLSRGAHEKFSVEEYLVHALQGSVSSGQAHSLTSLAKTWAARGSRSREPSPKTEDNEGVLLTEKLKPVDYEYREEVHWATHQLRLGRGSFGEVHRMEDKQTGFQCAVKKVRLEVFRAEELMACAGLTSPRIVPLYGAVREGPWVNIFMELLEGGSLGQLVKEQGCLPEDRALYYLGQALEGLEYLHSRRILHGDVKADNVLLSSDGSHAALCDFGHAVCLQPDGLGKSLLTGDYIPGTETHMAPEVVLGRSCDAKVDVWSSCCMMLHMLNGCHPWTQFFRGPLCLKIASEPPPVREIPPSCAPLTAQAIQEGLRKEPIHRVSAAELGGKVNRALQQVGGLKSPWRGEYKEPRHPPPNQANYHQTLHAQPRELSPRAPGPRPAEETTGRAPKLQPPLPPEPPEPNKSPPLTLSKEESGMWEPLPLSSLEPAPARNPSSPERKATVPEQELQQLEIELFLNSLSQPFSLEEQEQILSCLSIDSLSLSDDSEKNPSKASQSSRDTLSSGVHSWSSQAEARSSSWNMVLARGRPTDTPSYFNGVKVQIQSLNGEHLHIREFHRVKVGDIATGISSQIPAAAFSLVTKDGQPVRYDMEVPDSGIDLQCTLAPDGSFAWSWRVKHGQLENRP
Chain of TAOK2 (human) (Q9UL54 whole entry, looked up): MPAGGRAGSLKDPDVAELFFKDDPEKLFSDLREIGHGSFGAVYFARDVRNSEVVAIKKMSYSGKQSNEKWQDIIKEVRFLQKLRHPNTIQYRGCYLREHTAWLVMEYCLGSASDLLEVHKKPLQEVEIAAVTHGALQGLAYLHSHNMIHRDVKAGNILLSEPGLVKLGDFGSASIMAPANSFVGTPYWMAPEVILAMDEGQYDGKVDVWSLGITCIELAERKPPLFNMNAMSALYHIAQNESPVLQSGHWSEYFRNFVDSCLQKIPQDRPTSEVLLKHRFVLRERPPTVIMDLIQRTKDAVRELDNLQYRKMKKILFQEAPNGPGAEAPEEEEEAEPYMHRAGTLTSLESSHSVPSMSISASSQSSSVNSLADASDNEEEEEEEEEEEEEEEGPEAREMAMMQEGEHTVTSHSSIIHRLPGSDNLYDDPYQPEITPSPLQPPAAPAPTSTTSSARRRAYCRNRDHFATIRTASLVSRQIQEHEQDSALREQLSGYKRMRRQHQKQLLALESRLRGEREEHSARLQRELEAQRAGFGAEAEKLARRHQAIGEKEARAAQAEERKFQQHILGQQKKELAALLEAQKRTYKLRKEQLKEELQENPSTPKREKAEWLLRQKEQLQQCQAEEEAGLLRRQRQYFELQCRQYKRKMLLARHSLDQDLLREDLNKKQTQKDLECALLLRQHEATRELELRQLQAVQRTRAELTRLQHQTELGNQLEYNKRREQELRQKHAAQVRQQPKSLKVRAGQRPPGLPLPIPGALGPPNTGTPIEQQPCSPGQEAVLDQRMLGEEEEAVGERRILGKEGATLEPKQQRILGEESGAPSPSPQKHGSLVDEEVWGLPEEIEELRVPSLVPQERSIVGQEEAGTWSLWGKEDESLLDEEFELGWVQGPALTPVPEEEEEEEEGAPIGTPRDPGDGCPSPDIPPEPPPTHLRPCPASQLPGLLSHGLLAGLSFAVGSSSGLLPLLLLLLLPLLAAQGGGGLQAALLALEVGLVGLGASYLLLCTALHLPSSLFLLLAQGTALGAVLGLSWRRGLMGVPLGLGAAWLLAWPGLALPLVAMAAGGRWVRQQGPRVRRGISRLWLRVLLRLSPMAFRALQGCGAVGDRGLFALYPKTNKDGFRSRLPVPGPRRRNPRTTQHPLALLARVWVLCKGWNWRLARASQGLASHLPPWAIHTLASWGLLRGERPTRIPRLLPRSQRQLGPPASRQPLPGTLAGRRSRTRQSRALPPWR

residual activity (ADRBK2 (human)): 95.7%
residual activity (AKT3 (human)): 95.1%
residual activity (CAMK2B (human)): 91.5%
residual activity (CAMK2G (human)): 70.6%
residual activity (CDK7 CCNH MNAT1 (human)): 91.1%
residual activity (CLK4 (human)): 94.1%
residual activity (CSNK1G1 (human)): 93.9%
residual activity (DAPK3 (human)): 82.2%
residual activity (DDR2 (human)): 89.8%
residual activity (DYRK1A (human)): 111%
residual activity (EPHA1 (human)): 83.2%
residual activity (GRK6 (human)): 88.5%
residual activity (IKBKB (human)): 92.4%
residual activity (INSRR (human)): 96.7%
residual activity (LIMK1 (human)): 69.7%
residual activity (LRRK2 (human)): 87.6%
residual activity (MAP3K14 (human)): 75.7%
residual activity (MAP3K3 (human)): 97.4%
residual activity (MAP3K8 (human)): 104%
residual activity (MAP4K5 (human)): 24.1%
residual activity (MAPK14 (human)): 99.2%
residual activity (MARK2 (human)): 74.9%
residual activity (MKNK2 (human)): 66.9%
residual activity (MLTK (human)): 77%
residual activity (MYLK2 (human)): 55%
residual activity (NTRK2 (human)): 38.4%
residual activity (NUAK1 (human)): 49.4%
residual activity (NUAK2 (human)): 85.2%
residual activity (PAK3 (human)): 99.1%
residual activity (PRKACA (human)): 109%
residual activity (PRKCH (human)): 95.4%
residual activity (PRKD1 (human)): 82.1%
residual activity (PRKX (human)): 99.9%
residual activity (RPS6KA4 KD2 (human)): 97.6%
residual activity (SGK2 (human)): 92.8%
residual activity (SRPK3 (human)): 93.9%
residual activity (STK16 (human)): 76.5%
residual activity (STK25 (human)): 80.9%
residual activity (STK33 (human)): 70.3%
residual activity (TAOK1 (human)): 126%
residual activity (TAOK2 (human)): 84.4%
residual activity (TAOK3 (human)): 72.4%
Compound: CC(=O)O/N=C1\C(=C2\C(=O)Nc3cc(Br)ccc32)Nc2ccccc21

residual activity (ADRBK2 (human)): 108%
residual activity (AKT3 (human)): 98.8%
residual activity (CAMK2B (human)): 87.5%
residual activity (CAMK2G (human)): 69.8%
residual activity (CDK7 CCNH MNAT1 (human)): 89.9%
residual activity (CLK4 (human)): 59.2%
residual activity (CSNK1G1 (human)): 86.8%
residual activity (DAPK3 (human)): 94.4%
residual activity (DDR2 (human)): 101%
residual activity (DYRK1A (human)): 105%
residual activity (EPHA1 (human)): 99.4%
residual activity (GRK6 (human)): 89.4%
residual activity (IKBKB (human)): 96.1%
residual activity (INSRR (human)): 35.7%
residual activity (LIMK1 (human)): 65.9%
residual activity (LRRK2 (human)): 91.6%
residual activity (MAP3K14 (human)): 88.7%
residual activity (MAP3K3 (human)): 94.4%
residual activity (MAP3K8 (human)): 106%
residual activity (MAP4K5 (human)): 37.8%
residual activity (MAPK14 (human)): 97.2%
residual activity (MARK2 (human)): 78.4%
residual activity (MKNK2 (human)): 82.1%
residual activity (MLTK (human)): 89.6%
residual activity (MYLK2 (human)): 41.1%
residual activity (NTRK2 (human)): 4.08%
residual activity (NUAK1 (human)): 8.89%
residual activity (NUAK2 (human)): 72.5%
residual activity (PAK3 (human)): 92.6%
residual activity (PRKACA (human)): 107%
residual activity (PRKCH (human)): 74.4%
residual activity (PRKD1 (human)): 85%
residual activity (PRKX (human)): 88.8%
residual activity (RPS6KA4 KD2 (human)): 58.7%
residual activity (SGK2 (human)): 91.8%
residual activity (SRPK3 (human)): 97.5%
residual activity (STK16 (human)): 54.8%
residual activity (STK25 (human)): 87.5%
residual activity (STK33 (human)): 44.1%
residual activity (TAOK1 (human)): 102%
residual activity (TAOK2 (human)): 96.3%
residual activity (TAOK3 (human)): 62.6%
Compound: O=C1Nc2ccccc2/C1=C1\Nc2ccccc2\C1=N/O

Compound: Cc1nc2cc3nc(-c4cccs4)cnc3cc2n1C
residual activity (ADRBK2 (human)): 99.2%
residual activity (AKT3 (human)): 112%
residual activity (CAMK2B (human)): 101%
residual activity (CAMK2G (human)): 101%
residual activity (CDK7 CCNH MNAT1 (human)): 102%
residual activity (CLK4 (human)): 79.2%
residual activity (CSNK1G1 (human)): 92.2%
residual activity (DAPK3 (human)): 102%
residual activity (DDR2 (human)): 108%
residual activity (DYRK1A (human)): 99.9%
residual activity (EPHA1 (human)): 87.1%
residual activity (GRK6 (human)): 104%
residual activity (IKBKB (human)): 103%
residual activity (INSRR (human)): 99.5%
residual activity (LIMK1 (human)): 112%
residual activity (LRRK2 (human)): 106%
residual activity (MAP3K14 (human)): 97.4%
residual activity (MAP3K3 (human)): 117%
residual activity (MAP3K8 (human)): 99%
residual activity (MAP4K5 (human)): 94.8%
residual activity (MAPK14 (human)): 97.5%
residual activity (MARK2 (human)): 81.4%
residual activity (MKNK2 (human)): 108%
residual activity (MLTK (human)): 89.1%
residual activity (MYLK2 (human)): 74.5%
residual activity (NTRK2 (human)): 64.7%
residual activity (NUAK1 (human)): 95.3%
residual activity (NUAK2 (human)): 96.7%
residual activity (PAK3 (human)): 98.8%
residual activity (PRKACA (human)): 100%
residual activity (PRKCH (human)): 96.8%
residual activity (PRKD1 (human)): 97.7%
residual activity (PRKX (human)): 106%
residual activity (RPS6KA4 KD2 (human)): 88.4%
residual activity (SGK2 (human)): 115%
residual activity (SRPK3 (human)): 96.6%
residual activity (STK16 (human)): 95.2%
residual activity (STK25 (human)): 97.3%
residual activity (STK33 (human)): 91.5%
residual activity (TAOK1 (human)): 110%
residual activity (TAOK2 (human)): 99.7%
residual activity (TAOK3 (human)): 116%

Compound: O=C1NC(=O)/C(=C\c2ccc3nccnc3c2)S1
residual activity (ADRBK2 (human)): 111%
residual activity (AKT3 (human)): 104%
residual activity (CAMK2B (human)): 89.3%
residual activity (CAMK2G (human)): 101%
residual activity (CDK7 CCNH MNAT1 (human)): 85.2%
residual activity (CLK4 (human)): 47.5%
residual activity (CSNK1G1 (human)): 101%
residual activity (DAPK3 (human)): 93.3%
residual activity (DDR2 (human)): 93.4%
residual activity (DYRK1A (human)): 21.8%
residual activity (EPHA1 (human)): 91.8%
residual activity (GRK6 (human)): 97%
residual activity (IKBKB (human)): 96.1%
residual activity (INSRR (human)): 111%
residual activity (LIMK1 (human)): 87.4%
residual activity (LRRK2 (human)): 96%
residual activity (MAP3K14 (human)): 101%
residual activity (MAP3K3 (human)): 100%
residual activity (MAP3K8 (human)): 99.6%
residual activity (MAP4K5 (human)): 85.4%
residual activity (MAPK14 (human)): 92.9%
residual activity (MARK2 (human)): 93%
residual activity (MKNK2 (human)): 98.2%
residual activity (MLTK (human)): 93.6%
residual activity (MYLK2 (human)): 97.2%
residual activity (NTRK2 (human)): 90.7%
residual activity (NUAK1 (human)): 92.8%
residual activity (NUAK2 (human)): 76%
residual activity (PAK3 (human)): 97.4%
residual activity (PRKACA (human)): 97.2%
residual activity (PRKCH (human)): 89.7%
residual activity (PRKD1 (human)): 94.8%
residual activity (PRKX (human)): 89.2%
residual activity (RPS6KA4 KD2 (human)): 115%
residual activity (SGK2 (human)): 99.3%
residual activity (SRPK3 (human)): 91.4%
residual activity (STK16 (human)): 91.9%
residual activity (STK25 (human)): 99.3%
residual activity (STK33 (human)): 66.3%
residual activity (TAOK1 (human)): 82.8%
residual activity (TAOK2 (human)): 89.9%
residual activity (TAOK3 (human)): 93.1%
